# Laboratory results published in US20240358693A1, “METHODS OF TREATING PAIN” (Aisa Pharma, Inc., priority 2023, published 2024).
# System: participants with Raynaud's Phenomenon secondary mostly to systemic sclerosis (SSc-RP)
# Assay: Frequency of weekly symptomatic RP attacks (patient diary), Phase 2a study Part A
# Assay type: in vivo, human
# Conditions: ITT Part A
# Description: A randomized, placebo-controlled phase 2a study was performed and is in progress to assess the safety and efficacy of cilnidipine (10 mg and 20 mg) alone and in combination with 5 mg tadalafil, in participants with diagnosis of scleroderma and/or secondary Raynaud's disease.
# The relevant metrics measured by this tool daily are: • Study medication • SSc-RP symptoms (Reporting an attack including duration of attack) • Severity of the attack considering all symptoms of the attack e.g., tingling, numbness, pain, color changes (VAS 0-10 cm scale) • Participant's location at the time of the attack (inside home/outside home) • Selecting symptoms experienced during the attack (tingling, numbness, pain, color changes, other) • Pain rating during the attack (11-point Likert scale) • The RCS based on how much difficulty participants had with Raynaud's today, how many attacks the participant had, and how long they lasted. Participants will also be asked to consider how much pain, numbness, or other symptoms the Raynaud's caused in fingers (including painful sores), and how much the Raynaud's alone affected the use of hands today (VAS 0-10 cm scale).
# Percent change from baseline evaluation for frequency of weekly RP attacks were or will be used as the primary efficacy variable. The sponsor-developed participant-informed diary will be used to record data. Frequency of weekly RP attacks is defined as the total number of RP attacks divided by the number of days with available diary data within the last 7 days of each dosing period then multiplied by 7. Total number of RP attacks during the last 7 days of screening period divided by the number of days with available data then multiplied by 7 will be used as baseline for the analysis of all periods. The variable will be calculated as follows:
# Percentage change={(weekly RP attacks for the last 7 days of each dosing period−Baseline weekly RP attacks)/Baseline weekly RP attacks}*100%.
# Absolute change=weekly RP attacks for the last 7 days of each dosing period−Baseline weekly RP attacks
# Percent change from baseline evaluation for frequency of weekly RP attacks was and will be the primary efficacy endpoint. Frequency of weekly RP attacks is defined as the total number of RP attacks divided by the number of days with available diary data within the last 7 days of each dosing period then multiplied by 7. Total number of RP attacks during the last 7 days of screening period divided by the number of days with available data then multiplied by 7 will be used as baseline for the analysis of all periods.
# The following data was actually obtained in accordance with the protocol and plan delineated in Examples 1 and 2. The accompanying data involved 11 patients out of the planned 76 patient study. The study was done in patients with scleroderma (systemic sclerosis) who had relatively frequent Raynaud symptoms as they needed to average at least one attack per day during a screening period of up to two weeks. In this first phase of this double-blind placebo-controlled, prospective randomized study, patients were treated in parallel and after meeting study criteria were randomized to receive either placebo, cilnidipine 10 mg daily, cilnidipine 20 mg daily, tadalafil 5 mg daily, cilnidipine 10 mg plus 5 mg of tadalafil, or cilnidipine 20 mg plus 5 mg of tadalafil.
# [1] = Cilnidipine 10 mg, n 1, Excluding Outliers
# [2] = Cilnidipine 10 mg, n 1, by Baseline RCS, 1st block (RCS <5.0)
# [3] = Cilnidipine 20 mg, n 2, Excluding Outliers
# [4] = Cilnidipine 20 mg, n 2, by Baseline RCS, 1st block (RCS <5.0)
# [5] = Pooled Cilnidipine 10 mg and Cilnidipine 10 mg + Tadalafil 5 mg (N = 3)
# [6] = Pooled Cilnidipine 10 mg and Cilnidipine 10 mg + Tadalafil 5 mg, n 1, by Baseline RCS, 2nd block (RCS >5.0)
# [7] = Pooled Cilnidipine 10 mg and Cilnidipine 10 mg + Tadalafil 5 mg, n 2, by Baseline RCS, 1st block (RCS <5.0)
# [8] = Pooled Cilnidipine 10 mg and Cilnidipine 10 mg + Tadalafil 5 mg, n 3, Excluding Outliers
# [9] = Pooled Cilnidipine 20 mg and Cilnidipine 20 mg + Tadalafil 5 mg (N = 4)
# [10] = Pooled Cilnidipine 20 mg and Cilnidipine 20 mg + Tadalafil 5 mg, n 1, by Baseline RCS, 2nd block (RCS >5.0)
# [11] = Pooled Cilnidipine 20 mg and Cilnidipine 20 mg + Tadalafil 5 mg, n 3, by Baseline RCS, 1st block (RCS <5.0)
compound,measurement,setting,value
"COCCOC(=O)C1=C(C)NC(C)=C(C(=O)OC/C=C/c2ccccc2)C1c1cccc([N+](=O)[O-])c1 (stereo not shown) [Cilnidipine, cilnidipine]","Weekly Symptomatic RP Attacks Change from Baseline, Mean",Cilnidipine 10 mg (N = 1),−7.00
same,"Weekly Symptomatic RP Attacks Change from Baseline, Median",Cilnidipine 10 mg (N = 1),−7.00
same,"Weekly Symptomatic RP Attacks Percent Change from Baseline, Mean",Cilnidipine 10 mg (N = 1),−33.33%
same,"Weekly Symptomatic RP Attacks Percent Change from Baseline, Median",Cilnidipine 10 mg (N = 1),−33.33%
same,"Weekly Symptomatic RP Attacks, Mean",Cilnidipine 10 mg (N = 1),14.00
same,"Weekly Symptomatic RP Attacks, Median",Cilnidipine 10 mg (N = 1),14.00
same,"Weekly Symptomatic RP Attacks Change from Baseline, Mean (SD)",[1],−7.00
same,"Weekly Symptomatic RP Attacks Change from Baseline, Median",[1],−7.00
same,"Weekly Symptomatic RP Attacks Percent Change from Baseline, Mean (SD)",[1],−33.33%
same,"Weekly Symptomatic RP Attacks Percent Change from Baseline, Median",[1],−33.33%
same,"Weekly Symptomatic RP Attacks, Mean (SD)",[1],14.00
same,"Weekly Symptomatic RP Attacks, Median",[1],14.00
same,"Weekly Symptomatic RP Attacks Change from Baseline, Mean (SD)",[2],−7.00
same,"Weekly Symptomatic RP Attacks Change from Baseline, Median",[2],−7.00
same,"Weekly Symptomatic RP Attacks Percent Change from Baseline, Mean (SD)",[2],−33.33%
same,"Weekly Symptomatic RP Attacks Percent Change from Baseline, Median",[2],−33.33%
same,"Weekly Symptomatic RP Attacks, Mean (SD)",[2],14.00
same,"Weekly Symptomatic RP Attacks, Median",[2],14.00
same,"Weekly Symptomatic RP Attacks Change from Baseline, Mean",Cilnidipine 20 mg (N = 2),−4.50
same,"Weekly Symptomatic RP Attacks Change from Baseline, Median",Cilnidipine 20 mg (N = 2),−4.50
same,"Weekly Symptomatic RP Attacks Percent Change from Baseline, Mean",Cilnidipine 20 mg (N = 2),−33.73%
same,"Weekly Symptomatic RP Attacks Percent Change from Baseline, Median",Cilnidipine 20 mg (N = 2),−33.73%
same,"Weekly Symptomatic RP Attacks, Mean",Cilnidipine 20 mg (N = 2),8.00
same,"Weekly Symptomatic RP Attacks, Median",Cilnidipine 20 mg (N = 2),8.00
same,"Weekly Symptomatic RP Attacks Change from Baseline, Mean (SD)",[3],−4.50 (3.536)
same,"Weekly Symptomatic RP Attacks Change from Baseline, Median",[3],−4.50
same,"Weekly Symptomatic RP Attacks Percent Change from Baseline, Mean (SD)",[3],−33.73 (7.296) %
same,"Weekly Symptomatic RP Attacks Percent Change from Baseline, Median",[3],−33.73%
same,"Weekly Symptomatic RP Attacks, Mean (SD)",[3],8.00 (4.243)
same,"Weekly Symptomatic RP Attacks, Median",[3],8.00
same,"Weekly Symptomatic RP Attacks Change from Baseline, Mean (SD)",[4],−4.50 (3.536)
same,"Weekly Symptomatic RP Attacks Change from Baseline, Median",[4],−4.50
same,"Weekly Symptomatic RP Attacks Percent Change from Baseline, Mean (SD)",[4],−33.73 (7.296) %
same,"Weekly Symptomatic RP Attacks Percent Change from Baseline, Median",[4],−33.73%
same,"Weekly Symptomatic RP Attacks, Mean (SD)",[4],8.00 (4.243)
same,"Weekly Symptomatic RP Attacks, Median",[4],8.00
same,"Weekly Symptomatic RP Attacks Change from Baseline, Mean",[5],−4.67
same,"Weekly Symptomatic RP Attacks Change from Baseline, Median",[5],−4.00
same,"Weekly Symptomatic RP Attacks Percent Change from Baseline, Mean",[5],−40.21%
same,"Weekly Symptomatic RP Attacks Percent Change from Baseline, Median",[5],−42.86%
same,"Weekly Symptomatic RP Attacks, Mean",[5],7.67
same,"Weekly Symptomatic RP Attacks, Median",[5],5.00
same,"Weekly Symptomatic RP Attacks Change from Baseline, Mean (SD)",[6],−3.00
same,"Weekly Symptomatic RP Attacks Change from Baseline, Median",[6],−3.00
same,"Weekly Symptomatic RP Attacks Percent Change from Baseline, Mean (SD)",[6],−42.86%
same,"Weekly Symptomatic RP Attacks Percent Change from Baseline, Median",[6],−42.86%
same,"Weekly Symptomatic RP Attacks, Mean (SD)",[6],4.00
same,"Weekly Symptomatic RP Attacks, Median",[6],4.00
same,"Weekly Symptomatic RP Attacks Change from Baseline, Mean (SD)",[7],−5.50 (2.121)
same,"Weekly Symptomatic RP Attacks Change from Baseline, Median",[7],−5.50
same,"Weekly Symptomatic RP Attacks Percent Change from Baseline, Mean (SD)",[7],−38.89 (7.857) %
same,"Weekly Symptomatic RP Attacks Percent Change from Baseline, Median",[7],−38.89%
same,"Weekly Symptomatic RP Attacks, Mean (SD)",[7],9.50 (6.364)
same,"Weekly Symptomatic RP Attacks, Median",[7],9.50
same,"Weekly Symptomatic RP Attacks Change from Baseline, Mean (SD)",[8],−4.67 (2.082)
same,"Weekly Symptomatic RP Attacks Change from Baseline, Median",[8],−4.00
same,"Weekly Symptomatic RP Attacks Percent Change from Baseline, Mean (SD)",[8],−40.21 (6.009) %
same,"Weekly Symptomatic RP Attacks Percent Change from Baseline, Median",[8],−42.86%
same,"Weekly Symptomatic RP Attacks, Mean (SD)",[8],7.67 (5.508)
same,"Weekly Symptomatic RP Attacks, Median",[8],5.00
same,"Weekly Symptomatic RP Attacks Change from Baseline, Mean",[9],−3.63
same,"Weekly Symptomatic RP Attacks Change from Baseline, Median",[9],−3.50
same,"Weekly Symptomatic RP Attacks Percent Change from Baseline, Mean",[9],−25.00%
same,"Weekly Symptomatic RP Attacks Percent Change from Baseline, Median",[9],−28.17%
same,"Weekly Symptomatic RP Attacks, Mean",[9],9.75
same,"Weekly Symptomatic RP Attacks, Median",[9],10.50
same,"Weekly Symptomatic RP Attacks Change from Baseline, Mean (SD)",[10],−0.50
same,"Weekly Symptomatic RP Attacks Change from Baseline, Median",[10],−0.50
same,"Weekly Symptomatic RP Attacks Percent Change from Baseline, Mean (SD)",[10],−4.76%
same,"Weekly Symptomatic RP Attacks Percent Change from Baseline, Median",[10],−4.76%
same,"Weekly Symptomatic RP Attacks, Mean (SD)",[10],10.00
same,"Weekly Symptomatic RP Attacks, Median",[10],10.00
same,"Weekly Symptomatic RP Attacks Change from Baseline, Mean (SD)",[11],−4.67 (2.517)
same,"Weekly Symptomatic RP Attacks Change from Baseline, Median",[11],−5.00
same,"Weekly Symptomatic RP Attacks Percent Change from Baseline, Mean (SD)",[11],−31.75 (6.199) %
same,"Weekly Symptomatic RP Attacks Percent Change from Baseline, Median",[11],−28.57%
same,"Weekly Symptomatic RP Attacks, Mean (SD)",[11],9.67 (4.163)
same,"Weekly Symptomatic RP Attacks, Median",[11],11.00
same,"Weekly Symptomatic RP Attacks Change from Baseline, Mean (SD)","Pooled Cilnidipine 20 mg and Cilnidipine 20 mg + Tadalafil 5 mg, n 4, Excluding Outliers",−3.63 (2.926)
